For data set [1], the system named is U87-MG cells (human glioblastoma). Briefly: MTT cytotoxicity assay, U87-MG. The data set is classed as cell-based. To be noted: for IC50: Homo sapiens, U-87 MG, MTT, 48 h, read-out: IC50 against U87-MG; for SI, U87-MG cells: SI = IC50 normal cells (HPAEpiC)/IC50 U87-MG. As to the method:
(§1) GBM (U87-MG), breast cancer (MCF-7), prostate carcinoma (PC-3), and lung epithelium (HPAEpiC) cell lines were used to assess the cytotoxic action potential of compounds 5a–5l. The cells were grown in a single layer in flasks in appropriate medium containing 10% fetal bovine serum (FBS), 1% penicillin/streptomycin, and 1% L-glutamine at 37 °C and 5% CO2 to maintain the pH balance. Cells that had reached 70%–80% confluence were used in the experiments.
(§2) The 3-(4,5-dimethylthiazol-2-yl)-2,5-diphenyltetrazolium bromide (MTT) method is a widely used colorimetric method for the quantitative determination of cell viability. It is based on the reduction of the tetrazolium ring of the yellow dye MTT by living cells. As a result of the reduction, the tetrazolium ring breaks down to form a dark blue-violet formazan compound. Cell viability is then determined spectrophotometrically. The viability of untreated cells is assumed to be 100% and the viability of treated cells is determined as a percentage (%) according to those cells.
(§3) To each 96-well plate, 2 × 10^4 cells were seeded and treated with 6 different concentrations (3.125, 6.25, 12.5, 25, 50, and 100 mg/L) of the 12 tested compounds, and then the plates were incubated in a CO2 oven at 37 °C for 48 h. At the end of the incubation, 10 μL of the MTT mixture was added to each well using a pipette, which was then gently mixed for 1 min on a circular mixer. The cells were incubated in a CO2 oven at 37 °C for 3–4 h. The formazan that formed as a result of the incubation was seen as dark crystals at the bottoms of the wells. The culture medium was carefully aspirated from each well without dispersing the cell layer, and then 100 μL of dimethyl sulfoxide (DMSO) was added to each well and gently stirred on an orbital stirrer to dissolve the formazan crystals. Each sample was read at a wavelength of 570 nm in a spectrophotometer and absorbance values were obtained. A wavelength of 630 nm was used as the reference wavelength.
(§4) Percent viability and cytotoxicity values for each dose administered were calculated according to the following formulas:
(§5) • % Viability = (absorbance of the sample/absorbance of the control) × 100 • % Cytotoxicity = [1 – (absorbance of the sample/absorbance of the control)] × 100
(§6) The IC50 dose, as the concentration of inhibitor that caused a 50% decrease in cell viability, was calculated using Excel regression analysis.
(§7) Human GBM (U87-MG), breast cancer (MCF-7), prostate cancer (PC-3), and pulmonary alveolar epithelial cells (HPAEpiC) cell lines from the American Type Culture Collection (ATCC) were used for the cytotoxicity testing of compounds 5a–5l. The cells were grown as a single layer in appropriate medium containing 10% FBS, 1% penicillin/streptomycin, and 1% L-glutamine at 37 °C and 5% CO2 atmosphere.
(§8) The cytotoxicity analyses of all of the compounds were investigated by determining cell viability based on the colorimetric MTT assay, which was conducted according to the manufacturer’s guide. First, […] were seeded in a 96-well plate and then incubated at 37 °C in a 5% CO2 environment for 24 h. The medium was aspirated the following day, and […] of each concentration of the 12 tested compounds (3.125, 6.25, 12.5, 25, 50, and 100 mg/L) were separately added to each well. The plates were then incubated for 48 h at 37 °C with 5% CO2. Next, 10 μL of MTT solution was added to each well and the plate was incubated for 4 h. The culture medium was aspirated from the wells without dispersing the cell layer and then 100 μL of DMSO was added to each well and stirred on an orbital stirrer to dissolve the formazan crystals. Each sample was read at a wavelength of 570 nm in a spectrophotometer and absorbance values were obtained. A wavelength of 630 nm was used as the reference. Cell viability was expressed as a percentage compared to the untreated cells. All experiments were performed in triplicate.
On the technique in general: Tetrazolium assays rely on reduction of a dye to a coloured formazan, in cell work by metabolically active cells.

Data set [2] relates to MCF-7 cells (breast cancer). Briefly: MTT cytotoxicity assay, MCF-7. It is filed as cell-based, human. To be noted: for IC50: MTT, 48 h, read-out: IC50 against MCF-7; for SI, MCF-7 cells: SI = IC50 normal cells (HPAEpiC)/IC50 MCF-7. As to the method: as §1, §2, §3, §4, §5, §6, §7, §8
For data set [3], the system named is HPAEpiC cells (pulmonary alveolar epithelial cells). Kind of data set: MTT cytotoxicity assay, healthy HPAEpiC. The data set is classed as cell-based. To be noted: Homo sapiens, Epithelial cell, 48 h, read-out: IC50 against HPAEpiC (healthy cells). As to the method:
as §1, §2, §3, §4, §5, §6, §7, §8

In data set [4] the test system is PC-3 cells (prostate cancer). Briefly: MTT cytotoxicity assay, PC-3. It is filed as cell-based, human. The conditions noted are these: for IC50: MTT, 48 h, read-out: IC50 against PC-3; for SI, PC-3 cells: SI = IC50 normal cells (HPAEpiC)/IC50 PC-3. As to the method: as §1, §2, §3, §4, §5, §6, §7, §8

Where two headings read alike, the source gives them in different places.

For orientation: IC50 means the point on the concentration scale where inhibition reaches its midpoint. For orientation: melting point means the temperature, or range, at which the solid turns liquid. In the case of `O=C(/C=C/c1ccccc1)CCc1ccc(O)cc1` [Compound 5g, (E)-5-(4-hydroxyphenyl)-1-phenylpent-1-en-3-one], the melting point is 96 to 97 °C. In data set [1], the IC50 stood at 128 µM and the “SI, U87-MG cells” value amounted to 0.17. The IC50 in data set [2] (Homo sapiens, MCF7, 48 h) is under 30 µM. In data set [2], the IC50 stood at 16.2 µM and the “SI, MCF-7 cells” value was 1.31. Besides, the half-inhibitory concentration (IC50) in data set [3] worked out at 21.1 µM. Moreover, in data set [4] (Homo sapiens, PC-3, 48 h), the IC50 is 291 µM. Further, the “SI, PC-3 cells” value in data set [4] turned out to be 0.07.

In turn, `COc1ccc(/C=C/C(=O)CCc2ccccc2)cc1O` [Compound 5e, (E)-1-(3-hydroxy-4-methoxyphenyl)-5-phenylpent-1-en-3-one] registered a melting point of 94 to 95 °C. In data set [1], the IC50 came out at 133 µM and the “SI, U87-MG cells” value worked out at 0.20. Moreover, in data set [2] (Homo sapiens, MCF7, 48 h), the half-maximal inhibitory concentration (IC50) is under 30 µM. For the same molecule, in data set [2], the IC50 is 21.8 µM and the “SI, MCF-7 cells” value turned out to be 1.21. Moreover, the half-inhibitory concentration (IC50) in data set [3] amounted to 26.4 µM. Moreover, the IC50 in data set [4] (Homo sapiens, PC-3, 48 h) worked out at 95.8 µM. In addition, the “SI, PC-3 cells” value in data set [4] was 0.28.

The molecule `COc1ccc(/C=C/C(=O)CCc2ccccc2)cc1` [Compound 5c, (E)-1-(4-methoxyphenyl)-5-phenylpent-1-en-3-one] came in with a melting point of 95 to 96 °C. Further, in data set [1], the IC50 worked out at 213 µM and the “SI, U87-MG cells” value is 0.42. Also, the IC50 in data set [2] (Homo sapiens, MCF7, 48 h) is 50.2 µM. For the same molecule, the “SI, MCF-7 cells” value in data set [2] is 1.84. For the same molecule, the IC50 in data set [3] was determined as 92.3 µM. For the same molecule, the IC50 in data set [4] (Homo sapiens, PC-3, 48 h) is 439 µM. The “SI, PC-3 cells” value in data set [4] was 0.21.

`COc1ccc(/C=C/C(=O)CCc2ccc(O)cc2)cc1O` [Compound 5k, (E)-1-(3-hydroxy-4-methoxyphenyl)-5-(4-hydroxyphenyl)pent-1-en-3-one] had a melting point of 130 to 131 °C. In addition, in data set [1], the IC50 amounted to 52.6 µM and the “SI, U87-MG cells” value turned out to be 1.32. In addition, the IC50 in data set [2] (Homo sapiens, MCF7, 48 h) stood at 203 µM. The “SI, MCF-7 cells” value in data set [2] amounted to 0.34. For the same molecule, the IC50 in data set [3] stood at 69.3 µM. Moreover, the IC50 in data set [4] (Homo sapiens, PC-3, 48 h) came to 45.1 µM. In addition, the “SI, PC-3 cells” value in data set [4] is 1.54.

`O=C(/C=C/c1ccc(O)cc1)CCc1ccccc1` [Compound 5b, (E)-1-(4-hydroxyphenyl)-5-phenylpent-1-en-3-one] came in with a melting point of 136 to 137 °C. In data set [1], the IC50 stood at 70.9 µM and the “SI, U87-MG cells” value came out at 0.08. Further, the “SI, MCF-7 cells” value in data set [2] is given as 0.58. In addition, the IC50 in data set [3] is 5.51 µM. For the same molecule, the IC50 in data set [4] (Homo sapiens, PC-3, 48 h) was under 30 µM. In addition, in data set [4], the IC50 worked out at 22 µM and the “SI, PC-3 cells” value is listed as 0.25.

Turning to `COc1cc(/C=C/C(=O)CCc2ccc(O)cc2)ccc1O` [Compound 5j, (E)-1-(4-hydroxy-3-methoxyphenyl)-5-(4-hydroxyphenyl)pent-1-en-3-one], the melting point was in the range of 131 to 132 °C. In addition, in data set [1], the IC50 turned out to be 75.7 µM and the “SI, U87-MG cells” value was 1.23. Further, the IC50 in data set [2] (Homo sapiens, MCF7, 48 h) was determined as 35 µM. Moreover, the “SI, MCF-7 cells” value in data set [2] was 2.67. Also, the IC50 in data set [3] stood at 93.4 µM. In addition, the IC50 in data set [4] (Homo sapiens, PC-3, 48 h) amounted to 32.2 µM. The “SI, PC-3 cells” value in data set [4] was 2.90.

In turn, `O=C(/C=C/c1ccc(O)c(O)c1)CCc1ccc(O)cc1` [Compound 5l, (E)-1-(3,4-dihydroxyphenyl)-5-(4-hydroxyphenyl)pent-1-en-3-one] gave a melting point of 202 to 203 °C. In addition, in data set [1], the IC50 worked out at 287 µM and the “SI, U87-MG cells” value turned out to be 1.38. Also, in data set [2] (Homo sapiens, MCF7, 48 h), the 50% inhibitory concentration (IC50) came to 317 µM. For the same molecule, the “SI, MCF-7 cells” value in data set [2] is listed as 1.25. In addition, in data set [3], the IC50 stood at 396 µM. Further, the IC50 in data set [4] (Homo sapiens, PC-3, 48 h) is 185 µM. Also, the “SI, PC-3 cells” value in data set [4] is on record as 2.14.

`O=C(/C=C/c1ccc(O)cc1)CCc1ccc(O)cc1` [Compound 5h, (E) 1,5-bis(4-hydroxyphenyl)pent-1-en-3-one]: the melting point was in the range of 146 to 147 °C. In data set [1], the IC50 was determined as 358 µM and the “SI, U87-MG cells” value came out at 0.14. Besides, in data set [2] (Homo sapiens, MCF7, 48 h), the IC50 is under 30 µM. In data set [2], the IC50 is 26.7 µM and the “SI, MCF-7 cells” value is on record as 1.92. Also, the IC50 in data set [3] was found to be 51.4 µM. For the same molecule, the IC50 in data set [4] (Homo sapiens, PC-3, 48 h) is 437 µM. Moreover, the “SI, PC-3 cells” value in data set [4] turned out to be 0.12.

In the case of `COc1cccc2c1C(=O)c1c(O)c3c(c(O)c1C2=O)C[C@@](O)(C(=O)CO)C[C@@H]3O[C@H]1C[C@H](N)[C@H](O)[C@H](C)O1` [DOX control (+), doxorubicin, reference compound], the IC50 in data set [1] is 8.95 µM; in data set [2] (Homo sapiens, MCF7, 48 h), 14.7 µM; in data set [3], 64.4 µM; in data set [4] (Homo sapiens, PC-3, 48 h), 6.76 µM. Besides, the “SI, U87-MG cells” value in data set [1] is listed as 7.20. Further, the “SI, MCF-7 cells” value in data set [2] is given as 4.38. Moreover, the “SI, PC-3 cells” value in data set [4] worked out at 9.53.

In the case of `COc1cc(/C=C/C(=O)CCc2ccccc2)ccc1O` [Compound 5d, (E)-1-(4-hydroxy-3-methoxyphenyl)-5-phenylpent-1-en-3-one], the melting point fell in the range of 89 to 90 °C. In data set [1], the IC50 was 31.9 µM and the “SI, U87-MG cells” value was 0.45. For the same molecule, the IC50 in data set [2] (Homo sapiens, MCF7, 48 h) is under 30 µM. Moreover, in data set [2], the IC50 turned out to be 27.8 µM and the “SI, MCF-7 cells” value turned out to be 0.52. In data set [3], the IC50 is 14.4 µM. Also, the IC50 in data set [4] (Homo sapiens, PC-3, 48 h) is under 30 µM. Moreover, in data set [4], the IC50 worked out at 20.9 µM and the “SI, PC-3 cells” value was determined as 0.69.

Consider `O=C(/C=C/c1ccc(O)c(O)c1)CCc1ccccc1` [Compound 5f, (E)-1-(3,4-dihydroxyphenyl)-5-phenylpent-1-en-3-one], for which the IC50 in data set [1] turned out to be 33.4 µM; in data set [2] (Homo sapiens, MCF7, 48 h) it was 544 µM; in data set [3], 43.1 µM; in data set [4] (Homo sapiens, PC-3, 48 h), 97.5 µM. In data set [1], the “SI, U87-MG cells” value was 1.29. In addition, the “SI, MCF-7 cells” value in data set [2] is 0.08. The “SI, PC-3 cells” value in data set [4] is given as 0.44.

Source of the values: paper PMC10760875, “Synthesis of alnustone-like diarylpentanoids via a 4 + 1 strategy and assessment of their potential anticancer activity” (Turkish Journal of Chemistry, 2023).
